# Assay results as given in PMC9604400, “Synthesis, Anticancer and Antitubercular Properties of New Chalcones and Their Nitrogen-Containing Five-Membered Heterocyclic Hybrids Bearing Sulfonamide Moiety” (International Journal of Molecular Sciences, 2022).
# What was measured:
# NCI-H460 = assay: NCI-60 screen (SRB), non-small cell lung cancer; details: Homo sapiens
# HOP-92 = assay: NCI-60 screen (SRB), non-small cell lung cancer; details: Homo sapiens
# HL-60(TB) = assay: cells; details: Homo sapiens
# NCI-H522 = assay: NCI-60 screen (SRB), non-small cell lung cancer; details: Homo sapiens
# BT-549 = assay: NCI-60 screen (SRB), breast cancer; details: Homo sapiens
# MDA-MB-468 = assay: NCI-60 screen (SRB), breast cancer
# NCI-H226 = assay: NCI-60 screen (SRB), non-small cell lung cancer
# HCT-15 = assay: NCI-60 screen (SRB), colon cancer
# MCF7 = assay: NCI-60 screen (SRB), breast cancer; details: Homo sapiens
# MDA-MB-435 = assay: NCI-60 screen (SRB), melanoma; details: Homo sapiens
# SK-MEL-5 = assay: NCI-60 screen (SRB), melanoma; details: Homo sapiens
# MALME-3M = assay: NCI-60 screen (SRB), melanoma; details: Homo sapiens
# SW-620 = assay: NCI-60 screen (SRB), colon cancer
# SF-295 = assay: NCI-60 screen (SRB), CNS cancer; details: Homo sapiens
# COLO 205 = assay: NCI-60 screen (SRB), colon cancer
# renal cancer cell lines = assay: NCI-60 screen (SRB), renal cancer panel; type: cell-based; details: Homo sapiens, single dose 10 μM, read-out: GI (growth inhibition), range over panel
# M14 = assay: NCI-60 screen (SRB), melanoma; details: Homo sapiens
# TK-10 = assay: NCI-60 screen (SRB), renal cancer; details: Homo sapiens
# SR = assay: NCI-60 screen (SRB), leukemia
# MDA-MB-231/ATCC = assay: NCI-60 screen (SRB), breast cancer; details: Homo sapiens
# breast cancer cell lines = assay: NCI-60 screen (SRB), breast cancer panel; type: cell-based; details: Homo sapiens, single dose 10 μM, read-out: GI (growth inhibition), range over panel
# UO-31 = assay: NCI-60 screen (SRB), renal cancer; details: Homo sapiens
# OVCAR-5 = assay: NCI-60 screen (SRB), ovarian cancer; details: Homo sapiens
# UACC-257 = assay: NCI-60 screen (SRB), melanoma; details: Homo sapiens
smiles,measurement,setting,value
"COc1cc(OC)c(S(N)(=O)=O)cc1C(=O)/C=C/c1ccc(Cl)cc1 [Compound 17b, (E)-5-(3-(4-Chlorophenyl)acryloyl)-2,4-dimethoxybenzenesulfonamide]",IC50,NCI-H460; NCI-H460,2.84 µM
same,CC50,"NCI-H460; NCI-H460, read-out: LC50",> 100 µM
same,IC50,HOP-92; HOP-92,1.46 µM
same,CC50,"HOP-92; HOP-92, read-out: LC50",24.9 µM
same,IC50,HL-60(TB); HL-60,1.91 µM
same,CC50,"HL-60(TB); HL-60, read-out: LC50",> 100 µM
same,IC50,NCI-H522; NCI-H522,1.63 µM
same,CC50,"NCI-H522; NCI-H522, read-out: LC50",7.14 µM
same,IC50,BT-549; BT-549,2.73 µM
same,CC50,"BT-549; BT-549, read-out: LC50",5.97 µM
same,IC50,"MDA-MB-468; Homo sapiens, MDA-MB-468",3.08 µM
same,CC50,"MDA-MB-468; Homo sapiens, MDA-MB-468, read-out: LC50",6.54 µM
same,lethality,"MDA-MB-468; MDA-MB-468, single dose 10 μM",57.82%
same,IC50,"NCI-H226; Homo sapiens, NCI-H226",2.56 µM
same,CC50,"NCI-H226; Homo sapiens, NCI-H226, read-out: LC50",> 100 µM
same,lethality,"NCI-H226; NCI-H226, single dose 10 μM",25.96%
same,lethality,"HCT-15; HCT-15, single dose 10 μM",41.55%
same,IC50,"HCT-15; Homo sapiens, HCT-15",1.46 µM
same,CC50,"HCT-15; Homo sapiens, HCT-15, read-out: LC50",> 100 µM
same,IC50,MCF7; MCF7,4.11 µM
same,CC50,"MCF7; MCF7, read-out: LC50",40.3 µM
same,IC50,MDA-MB-435; MDA-MB-435,2.08 µM
same,CC50,"MDA-MB-435; MDA-MB-435, read-out: LC50",29.3 µM
same,IC50,SK-MEL-5; SK-MEL-5,4.93 µM
same,CC50,"SK-MEL-5; SK-MEL-5, read-out: LC50",43 µM
same,IC50,MALME-3M,2.79 µM
same,CC50,MALME-3M; read-out: LC50,87.4 µM
same,IC50,"SW-620; Homo sapiens, SW-620",2.49 µM
same,CC50,"SW-620; Homo sapiens, SW-620, read-out: LC50",95.9 µM
same,lethality,"SW-620; SW-620, single dose 10 μM",39.92%
same,IC50,SF-295; SF-295,3.88 µM
same,CC50,"SF-295; SF-295, read-out: LC50",57.6 µM
same,lethality,"COLO 205; COLO 205, single dose 10 μM",30.00%
same,IC50,"COLO 205; Homo sapiens, COLO 205",1.66 µM
same,CC50,"COLO 205; Homo sapiens, COLO 205, read-out: LC50",5.88 µM
same,inhibition at 10 µM,renal cancer cell lines,78.5 to 100%
same,IC50,M14; M14,1.47 µM
same,CC50,"M14; M14, read-out: LC50",6.7 µM
same,IC50,TK-10; TK-10,2.91 µM
same,CC50,"TK-10; TK-10, read-out: LC50",33.4 µM
same,IC50,SR; Homo sapiens,2.11 µM
same,CC50,"SR; Homo sapiens, read-out: LC50",> 100 µM
same,lethality,SR; single dose 10 μM,19.50%
same,IC50,MDA-MB-231/ATCC; MDA-MB-231,18.9 µM
same,CC50,"MDA-MB-231/ATCC; MDA-MB-231, read-out: LC50",> 100 µM
same,inhibition at 10 µM,breast cancer cell lines,73.9 to 100%
same,IC50,UO-31; UO-31,2.36 µM
same,CC50,"UO-31; UO-31, read-out: LC50",33.1 µM
same,IC50,OVCAR-5; OVCAR-5,3.18 µM
same,CC50,"OVCAR-5; OVCAR-5, read-out: LC50",39 µM
same,IC50,UACC-257; UACC-257,5.46 µM
same,CC50,"UACC-257; UACC-257, read-out: LC50",71.6 µM
